Square brackets hold non-standard residues; d marks the D form. Peptide text beside a SMILES is read from it. d1Nal = N[C@H](Cc1cccc2ccccc12)C(=O)O; dNle = CCCC[C@@H](N)C(=O)O
Legend:
human red blood cells = experiment: Hemolytic activity; assay type: cell-based
Protocol: The percentage of hemolysis at 150 μM was determined for all compounds as previously described. Briefly, two-fold serial dilutions (2.35 to 150 μM) of compounds in PBS were mixed with a 0.5% v/v suspension of fresh human red blood cells (RBC) in the same buffer. After 1 h incubation at 37 °C, plates were centrifuged and aliquots of the supernatants were transferred to clear ELISA plates. Absorbance at 414 nm was determined and normalised with respect to a negative (PBS, 0%) and positive (melittin, 100%) control.

[1] = Lipid-peptide interaction by synchrotron SAXS; conditions: SAXS fit parameter, fit error < 5%
Source text: For preparation of unilamellar lipid vesicles, synthetic DMPC (1,2-dimyristoyl-sn-glycero-3-phosphocholine), DMPG (1,2-dimyristoyl-sn-glycero-3-phospho-(10-rac-glycerol)), and DMPE-PEG (1,2-dimyristoyl-sn-glycero-3-phosphoethanolamine-N-[methoxy(polyethylene glycol)-2000]) (from Avanti Polar Lipids) were used in the molar ratio 9:7.5:2.5. The lipids were first dissolved in a 1:3 methanol:chloroform solution, and then the organic solvents were removed completely under vacuum using a Heidolph rotary evaporator with a Vacuubrand vacuum pump. The resulting lipid film was hydrated with 50 mM Tris buffer, pH 7.4, for at least one hour at 35 °C. After sonication for 10 min, the lipid dispersions were extruded through a 100 nm pore diameter polycarbonate filter (21 times) using an Avanti mini-extruder fitted with two 1 mL airtight syringes. Immediately before the SAXS experiment, a peptide solution with the adequate concentration for the target lipid:peptide ratio was mixed 1:1 with the lipid solution (1:1) using a micropipette.
SAXS experiments of the peptide-lipid mixes were performed at the automated BM29 bioSAXS beamline at the European Synchrotron Radiation Facility (ESRF) in Grenoble, France. The data was obtained using an energy of 12.5 keV and a detector distance of 2.87 m, covering a q range of about 0.0047 Å^−1 to 0.5 Å^−1. The data set was calibrated to an absolute intensity scale using water as a primary standard. 40 µL samples were run through a capillary using the flow mode of the automated sample changer. SAXS data was collected in ten successive frames of 0.5 s each to monitor radiation damage and the data reduction was done using the standard tool at BM29 [37].
The SAXS results of the lipid-peptide mixes were analysed using the theoretical model described in detail in [29]. In short, the model provides a detailed description of the membrane by dividing into probability functions for each component (lipid sub-units/peptide) across the bilayer.

S. aureus 29213 = experiment: Time-kill kinetics, S. aureus; assay type: cell-based, Staphylococcus aureus; conditions: for reduction in viable cells: 5 × MIC, exponentially growing cells 1 × 10^8, S. aureus 29213
Protocol: (§1) The time kill experiments were performed by treating exponentially growing cultures with D2D and compound 5. Overnight cultures grown in MHB-II media, were diluted 1:10.000 to ensure exponentially growing cultures (8–10 generations), before cultures reached 1 × 10^8 CFU approximately OD600 = 0.1. When cultures reached 1 × 10^8 they were split into blood glass tubes containing 3 mL each and then treated with the respective drugs at the concentrations as shown in Figure 3. Sampling was performed at 0, 1, 3, 5 and 24 h, by removing 250 µL culture. Samples were spun down at 4000 G for 5 min and supernatant removed, cells were washed in 1 mL 0.9% NaCl, spun down again, before being suspended in 250 µL 0.9% NaCl. Finally, 10 fold dilution series were prepared in 0.9% NaCl. From these 10 µL were spotted (in triplicate) onto LB agar. CFU were counted after 24 h incubation at 37 °C. Experiments were performed in triplicate from individual colonies. Data analysis was performed using GraphPad prism 5 and plotted as the mean of triplicated with standard deviation.

E. coli 25922 = experiment: Time-kill kinetics, E. coli; assay type: cell-based, Escherichia coli; conditions: 5 × MIC, exponentially growing cells 1 × 10^8, E. coli 25922
Protocol: as §1

[2] = Peptide self-assembly nanostructure in solution by SAXS; assay type: physicochemical; conditions: for nanostructure in solution (self-assembly, SAXS model): lab SAXS, 50 mM Tris buffer pH 7.4, 2.5–10 mg/mL, ambient temperature; on outer radius of hollow nano-tubes: values in Å; on shell thickness of hollow nano-tubes: values in Å
Protocol: SAXS experiments of D2D and the alanine-scan (compounds 1–8) were performed using a Bruker NANOSTAR equipped with a microfocus X-ray source (IμS Cu, InCoatec, Germany) and a VÅNTEC-2000 detector. Raw scattering data was calibrated to absolute intensity scale using water as a primary standard and radially averaged in order to obtain the 1D scattered intensity profile as a function of the scattering vector q (q = 4 π sin (θ/2)/λ), where θ is the scattering angle and λ is the X-ray wavelength of 1.54 Å. The samples were dissolved in 50 mM Tris buffer, pH 7.4 (10 mg/mL, 5 mg/mL and 2.5 mg/mL) and injected manually into a temperature-controlled quartz cell located in a vacuum chamber and measured for 180 min.
The scattering of the peptide D2D was analysed using a random polymer-like chain model:(1) Ichain(q)=ϕ·Vp·Δρ^2·Pchain(q) where ϕ is the volume fraction of the peptide, Vp is the volume of the polymer, Δρ is the excess scattering length density and Pchain(q) is the form factor of the free peptide chains given by the Debye expression for Gaussian chains:(2) gPchain(q)=2·exp[−(qRg)^2]−1+(qRg)^2/(qRg)^4 where Rg is the radius gyration of the peptide chains.
The scattering for compounds 2 and 7 was analysed using a rectangular sheet like model:(3) Isheet(q)=ϕ·Vp·Δρ^2·Np·Psheet(q)
Under the assumption that the length of the peptide sheets are much greater than the lateral dimension, i.e., c >> a, b, the form factor Psheet(q) is given by (4) Psheet(q)=Fc(q)1/2π∫02πAsheet(q, α)^2dα where the amplitude is given by (5) Asheet(q,α)=sin(qb cos(α)/2)/qb cos(α)/2· sin(qa sin(α)/2) /qa sin(α)/2) and (6) Fc(q)=(2 Si(qc)/(qc)−4 sin^2(qc/2)/(qc)^2 where Si(x)=∫0xt^−1sint dt .
The expression for the absolute scattering intensity, from this structure can be written as:(7) Inanotube(q)=ϕ·P·Vtot·Δρ^2·P(q)L·A(q)cs2·DW(q) where ϕ is the volume fraction of the peptide, P is the aggregation number given by P π(Ro2−Ri2)L/Vp where Vp is the volume of a peptide chain, Ro is the outer radius and Ri is the inner radius of the tubes, and L is the length. A(q)cs2 is given by:(8) A(q)cs2=Ro2A(q,Rc)−Rin2A(q,Ri)/(Ro2−Ri2) where A(q,x)=2J1(q·x)/(q·x) and J1(x) is the first order Bessel function.
The longitudinal form factor P(q)L is given by:(9) P(q)L=2 Si(QL)/QL −4 sin(sin^2(QL/2)/(QL)^2 where L is the length of the nanotubes and Si(x) is the Sine-function.
In addition, we introduced a slight distribution in the inner radius for possible shape fluctuations, and a Debye Waller factor, DW(q) = exp(−q^2 σ^2), describing possible surface roughness of the inner and outer wall.

A. baumannii 19606 = experiment: Time-kill kinetics, A. baumannii; assay type: cell-based, Acinetobacter baumannii; conditions: 5 × MIC, exponentially growing cells 1 × 10^8, A. baumannii 19606
Protocol: as §1

[3] = test system: A. baumannii (ATCC 19606); assay type: cell-based, Acinetobacter baumannii; conditions: broth microdilution, MHB-II, ~5 × 10^5 CFU, 18–20 h at 37 °C, triplicate
Protocol: (§2) E. coli (ATCC 25922), S. aureus (ATCC 29213), P. aeruginosa (ATCC 27853) and A. baumannii (ATCC 19606).
(§3) Antimicrobial susceptibility testing was performed by broth dilution in MHB-II media using a protocol adapted from, with minor modifications. Briefly, the compounds were prepared in standard stocks of 1 mg/mL in milli-Q H2O. Antimicrobial dilutions were prepared in two times the final concentration (128 µg/mL) of the compounds. Bacterial suspensions were prepared from overnight cultures (MHB-II) by diluting to OD600 = 0.001 (Approximately 1 × 10^6 CFU). An amount of 100 µL MHB-II was transferred to all wells in column 1–9, excluding the antibiotics well (A1–A9). An amount of 200 µL of MHB-II was transferred to all wells in column 10–12. An amount of 200 µL peptide stock was transferred to each well from A1–9. A 2-fold serial dilution from row A–G was obtained by transferring 100 µL from row A to B, and continued until row G. Resulting in final concentration range of peptides: 128, 64, 32, 16, 8, 4, and 2 (µg/mL). Finally, 100 µL bacterial suspension (1 × 10^6 CFU) were added to all wells giving a final bacterial inoculum of approximately 5 × 10^5 colony forming units (CFU). The plates were incubated for 18–20 h at 37 °C.

[4] = test system: P. aeruginosa (ATCC 27853); assay type: cell-based, Pseudomonas aeruginosa; conditions: broth microdilution, MHB-II, ~5 × 10^5 CFU, 18–20 h at 37 °C, triplicate
Protocol: as §2, §3

E. coli (ATCC 25922) = assay type: cell-based, Escherichia coli; conditions: broth microdilution, MHB-II, ~5 × 10^5 CFU, 18–20 h at 37 °C, triplicate
Protocol: as §2, §3

S. aureus (ATCC 29213) = assay type: cell-based, Staphylococcus aureus; conditions: broth microdilution, MHB-II, ~5 × 10^5 CFU, 18–20 h at 37 °C, triplicate
Protocol: as §2, §3

[5] = cited from earlier work
Source text: (§4) In the present study, we investigated all-D-peptides. […] For example, Mana ...

P. aeruginosa 27853 = experiment: Time-kill kinetics, P. aeruginosa; assay type: cell-based, Pseudomonas aeruginosa; conditions: 5 × MIC, exponentially growing cells 1 × 10^8, P. aeruginosa 27853
Protocol: as §1

S. aureus = conditions: cited from earlier work
Source text: as §4

[6] = fraction peptide 1:10 (peptide 5: joint SAXS/SANS fit)
[7] = SAXS nanotube model fit, 50 mM Tris pH 7.4, 2.5–10 mg/mL

Compound	%H (% Hemolysis at 150 µM) (human red blood cells; red cells of human, 1 h, 150) [%]	ffree peptide ([1]; fraction peptide 1:5)	ffree peptide [1, 6]	ffree peptide ([1]; fraction peptide 1:20)	reduction in viable cells (S. aureus 29213) [log]	reduction in CFU/mL (S. aureus 29213; S. aureus, concentration not stated (conclusions)) [log]	reduction in number of viable cells (E. coli 25922)	outer radius of hollow nano-tubes [2, 7] [Å]	shell thickness of hollow nano-tubes [2, 7] [Å]	nanostructure in solution (self-assembly, SAXS model) [2]	reduction in number of viable cells (A. baumannii 19606)	%H (% Hemolysis at 150 µM) (human red blood cells; 150 µM in PBS, 0.5% v/v fresh human RBC, 1 h at 37 °C, absorbance 414 nm, normalised to PBS (0%) and melittin (100%)) [%]	Minimum Inhibitory Concentration A.B. [3] [µg/mL]	Minimum Inhibitory Concentration P.A. [4] [µg/mL]	Minimum Inhibitory Concentration E.C. (E. coli (ATCC 25922)) [µg/mL]	Minimum Inhibitory Concentration S.A. (S. aureus (ATCC 29213)) [µg/mL]	activity relative to its L-enantiomer (more active) [5]	killing of viable cells (P. aeruginosa 27853) [log]	antimicrobial activity against S. aureus (S. aureus) [µg/mL]
CCCC[C@@H](NC(=O)[C@@H](CCCCN)NC(=O)[C@@H](Cc1cccc2ccccc12)NC(=O)[C@@H](C)NC(=O)[C@@H](Cc1ccccc1)NC(=O)[C@@H](Cc1cccc2ccccc12)NC(=O)[C@@H](CCCCN)NC(=O)[C@H](N)CCCCN)C(N)=O [Compound 5, kk(1-nal)fa(1-nal)k(nle)-NH2] (H-[dK][dK][d1Nal][dF][dA][d1Nal][dK][dNle]-NH2)	47	0.4	0.5	0.5	5	> 3	4–5 logs	33	4	hollow nano-tubes	4–5 logs	–	–	–	–	–	–	–	–
CCCC[C@@H](NC(=O)[C@@H](CCCCN)NC(=O)[C@@H](Cc1cccc2ccccc12)NC(=O)[C@@H](CCCCN)NC(=O)[C@H](N)Cc1ccccc1)C(N)=O [Compound 29, fk(1-nal)k(nle)-NH2] (HELM PEPTIDE1{[dF].[dK].[O=C([C@@H](Cc1cccc2ccccc12)N[*:1])[*:2]].[dK].[CCCC[C@@H](N[*:1])C(=O)[*:2]].[am]}$$$$V2.0; N-terminus assumed)	–	–	–	–	–	–	–	–	–	–	–	12	>128	128	>128	>128	–	–	–
CCCC[C@@H](NC(=O)[C@@H](CCCCN)NC(=O)[C@@H](Cc1cccc2ccccc12)NC(=O)[C@@H](CCCCN)NC(=O)[C@@H](Cc1ccccc1)NC(=O)[C@@H](Cc1cccc2ccccc12)NC(=O)[C@@H](CCCCN)NC(=O)[C@H](N)CCCCN)C(N)=O [Compound D2D, kk(1-nal)fk(1-nal)k(nle)-NH2] (H-[dK][dK][d1Nal][dF][dK][d1Nal][dK][dNle]-NH2)	23	0.7	0.51	0.5	5	–	4–5 logs	–	–	random unstructured polymer-like chains	4–5 logs	–	–	–	–	–	approximately four-fold	1	–
KLKLLLLLKLK-NH2 [sapesin B analog (L-form), literature peptide of Manabe et al]	–	–	–	–	–	–	–	–	–	–	–	–	–	–	–	–	–	–	16
